Data on two compounds can be found in patent publication US20190388364A1, “[…] A LOCAL […]” (GRÜNENTHAL GMBH, priority 2017, published 2019).

The test system of this experiment is guinea pig skin twitch response. Nature of the experiment: guinea pig skin test (skin twitch response, local anesthetic effect). It is filed as in vivo. Particulars: for Stimuli per twitch response (means ± s.e.m.): max 20 stimuli; for number of animals with abrogated twitch response (max. effect): no twitch response after 20 stimuli. How it is done:
The local anesthetic effects of Tapentadol were studied in a guinea pig skin test.
Animals: Male Pirbright White guinea pigs from a commercial breeder (ca. 400 g body weights) were used for the study. The animals were housed under standard conditions: room temperature […], rel. air changes per hour, air movement <0.2 m/sec, light/dark rhythm (06.00-18.00 h light, 18.00-06.00 h dark). The animals had access to water ad libitum and to an exclusive diet of “Herilan RM 204” (Eggersmann Company, Rinteln/Germany). Before the experiment they lived in groups of 5-8 animals in type IV Makrolone cages (Ebeco Company, Castrop-Rauxel/Germany). There were at least five days between delivery of the animals and the test day.
Tapentadol (test compound was) dissolved in 0.9% NaCl solution. Application route: intradermal application. Application volume: 0.1 ml per application site. Concentrations: 0.05/0.01/0.3/0.5%.
Application route: intradermal application. Application volume: 0.1 ml per application site. Concentrations: 0.1/0.3/1.0.
The experiments were performed according to a modified method originally described by Bülbring and Wajda (J Pharm Exp Ther 85: 78-84, 1945). After erasure of the back of the animals 0.1 ml of solutions of the test compounds or of vehicle (0.9% NaCl) were injected intradermally. There were 3 injection sites each on both flanks of the back with a craniocaudal distance between them of 1.5 cm. A twitch response of the skin musculature was provoked by contact of these sites with the tip of an injection cannula. The number of the stimuli needed to provoke a twitch response was registered. A maximum of 20 stimuli per site was allowed. […] Thereafter, solution with different concentrations of the test compounds or vehicle were injected and the skin sensitivity was evaluated at 2, 5, 10, 15 and 20 min. The different test solutions were injected on both flanks of the back into the cranial, intermediate or caudal test site in a randomized order.
Test parameter: Stimuli per twitch response.
Each concentration of the test compounds was tested at 6-7 sites. The means±s.e.m. of stimuli that were necessary to induce a twitch response were calculated for the different times after application. In addition, number of tests with a complete abolition of skin sensitivity (i.e., no twitch response after 20 stimuli) was used to calculate an EC50-value (with 95% confidence limits) according to Litchfield and Wilcoxon.

Where [1] appears, read: 0.1 wt.-% intradermal, 2 min after application.
The mark [2] stands for this setting: 0.1 wt.-% intradermal, 5 min after application.
Where [3] appears, read: 0.1 wt.-% intradermal, 10 min after application.
Where [4] appears, read: 0.1 wt.-% intradermal, 15 min after application.
[5] abbreviates: 0.1 wt.-% intradermal, 20 min after application.
Setting [6] is: 0.3 wt.-% intradermal, 2 min after application.
Where [7] appears, read: 0.3 wt.-% intradermal, 5 min after application.
[8] abbreviates: 0.3 wt.-% intradermal, 10 min after application.
Setting [9] is: 0.3 wt.-% intradermal, 15 min after application.
[10] abbreviates: 0.3 wt.-% intradermal, 20 min after application.

In the case of `CC[C@@H](c1cccc(O)c1)[C@@H](C)CN(C)C` [Tapentadol, (1R,2R)-3-(3-dimethylamino-1-ethyl-2-methyl-propyl)-phenol], the “Stimuli per twitch response (means ± s.e.m.)” value (“Stimuli per twitch response” for short) is, setting by setting: (0.05 wt.-% intradermal, 0.1 ml per site, 2 min after application) 6 ± 3; (0.05 wt.-% intradermal, 5 min after application) 1; (0.05 wt.-% intradermal, 10 min after application) 1; (0.05 wt.-% intradermal, 15 min after application) 1; (0.05 wt.-% intradermal, 20 min after application) 1; under setting [1], 12 ± 4. The “Stimuli per twitch response” value under setting [2] is reported as 2 ± 1; the “Stimuli per twitch response” value under setting [3] was determined as 1; the “Stimuli per twitch response” value under setting [4] came to 1; the “Stimuli per twitch response” value under setting [5] amounted to 1; the “Stimuli per twitch response” value under setting [6] was determined as 20; the “Stimuli per twitch response” value under setting [7] is recorded as 20. In addition, the “Stimuli per twitch response” value is, setting by setting: under setting [8], 4 ± 3; under setting [9], 2 ± 1; under setting [10], 1; (0.5 wt.-% intradermal, 2 min after application) 20; (0.5 wt.-% intradermal, 5 min after application) 20; (0.5 wt.-% intradermal, 10 min after application) 10 ± 3. Besides, the “Stimuli per twitch response” value reads like this: (0.5 wt.-% intradermal, 15 min after application) 3 ± 2; (0.5 wt.-% intradermal, 20 min after application) 1. Besides, the “number of animals with abrogated twitch response (max. effect)” value is 1 of 7 (0.05 wt.-% intradermal), 3 of 6 (0.1 wt.-% intradermal), 7 of 7 (0.3 wt.-% intradermal) and 7 of 7 (0.5 wt.-% intradermal). In addition, under “intradermal, 0.05 to 0.5%”, the “time of maximum effect after application” value was 2 min. Besides, the “local anesthetic effect at 20 min after application” value (intradermal, up to the highest concentration (0.5%)) is “completely disappeared”.

For the compound `COc1cccc(C2(O)CCCCC2CN(C)C)c1` (centres unmarked) [Tramadol], the “Stimuli per twitch response” value reads like this: under setting [1], 1; under setting [2], 1; under setting [3], 1; under setting [4], 1; under setting [5], 1; under setting [6], 8 ± 3. The “Stimuli per twitch response” value reads like this: under setting [7], 6 ± 3; under setting [8], 3 ± 2; under setting [9], 3 ± 2; under setting [10], 3 ± 2; (1.0 wt.-% intradermal, 2 min after application) 20; (1.0 wt.-% intradermal, 5 min after application) 20. Further, the “Stimuli per twitch response” value worked out at 20 (1.0 wt.-% intradermal, 10 min after application); 15 ± 3 (1.0 wt.-% intradermal, 15 min after application); 14 ± 3 (1.0 wt.-% intradermal, 20 min after application).
